The NIST ThermoML archive (doi:10.1016/j.jct.2015.08.035)
Numbers after ± are expanded uncertainties.

What was measured:
[1] = Molar enthalpy of transition or fusion; conditions: Crystal; DSC
[2] = Crystal; DTA

With CC1=C(O)C(=O)C(C)O1 (configuration not stated) [4-hydroxy-2,5-dimethyl-3(2H)-furanone] the “Molar enthalpy of transition or fusion” value [1] was 18.7 ± 1.1 kJ/mol and the Normal melting temperature [2] was 82.07 ± 1.1 °C.
